# According to US10035819B2, “PPAR agonists and methods of use thereof” (The Salk Institute for Biological Studies, priority 2014, dated 2018):
# pEC50: −log10 of the molar value.
# Target: T1, PPARδ (Homo sapiens, UniProt Q03181)
# T1 construct: expressed in transfected cells; host or cells: PathHunter NHR cell lines
# T1 sequence (Q03181 1-441): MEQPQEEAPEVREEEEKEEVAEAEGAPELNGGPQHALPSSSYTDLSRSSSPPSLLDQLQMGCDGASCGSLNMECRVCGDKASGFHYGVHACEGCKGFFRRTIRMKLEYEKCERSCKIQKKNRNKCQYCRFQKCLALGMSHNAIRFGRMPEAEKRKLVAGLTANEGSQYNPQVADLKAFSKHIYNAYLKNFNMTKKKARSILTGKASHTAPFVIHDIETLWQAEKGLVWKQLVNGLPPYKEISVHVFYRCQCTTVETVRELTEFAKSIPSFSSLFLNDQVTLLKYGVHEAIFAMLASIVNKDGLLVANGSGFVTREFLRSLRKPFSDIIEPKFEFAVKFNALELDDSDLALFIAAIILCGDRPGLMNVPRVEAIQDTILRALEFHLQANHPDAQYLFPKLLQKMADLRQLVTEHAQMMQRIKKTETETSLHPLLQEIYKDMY
# Experiment: Nuclear Hormone Receptor (NHR) protein interaction assay (PathHunter), agonist format
# Assay type: cell-based
# Details: not given
# Protocol: • Cell Handling: PathHunter NHR cell lines were expanded from freezer stocks according to standard procedures. Cells were seeded in a total volume of 20 μL into white walled, 384-well microplates and incubated at 37° C. for the appropriate time prior to testing. Assay media contained charcoal-dextran filtered serum to reduce the level of hormones present. • Agonist Format: For agonist determination, cells were incubated with sample to induce response. Intermediate dilution of sample stocks was performed to generate 5× sample in assay buffer. 5 μL of 5× sample was added to cells and incubated at 37° C. or room temperature for 3-16 hours. Final assay vehicle concentration was 1%. • Antagonist Format: For antagonist determination, cells were pre-incubated with antagonist followed by agonist challenge at the EC80 concentration. Intermediate dilution of sample stocks was performed to generate 5× sample in assay buffer. 5 μL of 5× sample was added to cells and incubated at 37° C. or room temperature for 60 minutes. Vehicle concentration was 1%. […] Microplates were read following signal generation with a PerkinElmer Envision™ instrument for chemiluminescent signal detection. • Data Analysis: Compound activity was analyzed using CBIS data analysis suite (ChemInnovation, CA). For agonist mode assays, percentage activity was calculated using the following formula: % Activity=100%×(mean RLU of test sample−mean RLU of vehicle control)/(mean MAX control ligand−mean RLU of vehicle control).
# For antagonist mode assays, percentage inhibition was calculated using the following formula: % Inhibition=100%×(1−(mean RLU of test sample−mean RLU of vehicle control)/(mean RLU of EC80 control−mean RLU of vehicle control)). Note that for select assays, the ligand response produces a decrease in receptor activity (inverse agonist with a constitutively active target). For those assays inverse agonist activity was calculated using the following formula: % Inverse Agonist Activity=100%×((mean RLU of vehicle control−mean RLU of test sample)/(mean RLU of vehicle control−mean RLU of MAX control)).
row,SMILES,pEC50
1,CCC(C)N(Cc1ccccc1OCCCCCC(=O)O)C(=O)c1ccc(-c2ccco2)cc1 (centres unmarked) [compound 37],7.76
2,CC(C)N(Cc1ccccc1OCCCCCC(=O)O)C(=O)c1ccc(-c2ccccc2)cc1 [compound 57],7.59
3,CC(C)N(Cc1ccccc1OCCCCCC(=O)O)C(=O)c1ccc(-c2cccs2)cc1 [compound 63],8.08

# Same assay, conditions: PathHunter NHR cell line, agonist format; read-out: NHR protein interaction assay, EC50 (nM) for PPARδ
row,SMILES,EC50 [nM]
1,CC(C)N(Cc1ccccc1OCCCCCC(=O)O)C(=O)c1ccc(-c2ccco2)cc1 [compound 61],5.9

# Target: T2, Human PPARδ LBD (Homo sapiens, UniProt Q03181)
# T2 construct: (PPARδ amino acid 128 to C-terminus); expressed in transfected cells; host or cells: CV-1 cells
# T2 sequence (Q03181 128-441 limits assumed): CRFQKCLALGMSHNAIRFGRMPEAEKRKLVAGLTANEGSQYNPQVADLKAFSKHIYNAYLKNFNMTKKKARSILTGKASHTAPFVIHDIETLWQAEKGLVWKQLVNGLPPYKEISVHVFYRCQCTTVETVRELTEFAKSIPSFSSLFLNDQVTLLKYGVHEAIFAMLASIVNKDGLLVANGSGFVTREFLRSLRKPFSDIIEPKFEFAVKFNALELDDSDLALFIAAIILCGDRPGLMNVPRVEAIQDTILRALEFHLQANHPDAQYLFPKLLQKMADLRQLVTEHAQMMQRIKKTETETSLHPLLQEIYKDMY
# Experiment: PPARδ activity screen (GAL4-PPARδ LBD luciferase transactivation in CV-1 cells)
# Assay type: cell-based
# Details: EC50 nM, Table 1; CV-1 cells, GAL4-PPARδ LBD luciferase reporter, compound 24 h
# Protocol: Cell Culture and Transfection: CV-1 cells were grown in DMEM+10% charcoal stripped FCS. Cells were seeded into 384-well plates the day before transfection to give a confluency of 50-80% at transfection. A total of […] containing 0.64 micrograms pCMX-PPARDelta LBD, 0.1 micrograms pCMXβGal, 0.08 micrograms pGLMH2004 reporter and 0.02 micrograms pCMX empty vector was transfected per well using FuGene transfection reagent according to the manufacturer's instructions (Roche).
# Plasmids: Human PPARδ was used to PCR amplify the PPARδ LBD. […] Ensuing fusions were verified by sequencing.
# Compounds: All compounds were dissolved in DMSO and diluted 1:1000 upon addition to the cells. Compounds were tested in quadruple in concentrations ranging from 0.001 to 100 μM. […] Each compound was tested in at least two separate experiments.
# Luciferase assay: Medium including test compound was aspirated and washed with PBS. 50 μl PBS including 1 mM Mg++ and Ca++ were then added to each well. The luciferase assay was performed using the LucLite kit according to the manufacturer's instructions (Packard Instruments). Light emission was quantified by counting on a Perkin Elmer Envision reader. […] Beta-galactosidase assays were performed in the microwell plates using a kit from Promega and read in a Perkin Elmer Envision reader. The beta-galactosidase data were used to normalize (transfection efficiency, cell growth etc.) the luciferase data.
# Statistical Methods: The activity of a compound is calculated as fold induction compared to an untreated sample. […] EC50 values were calculated via non-linear regression using GraphPad PRISM (GraphPad Software, San Diego, Calif.).
row,SMILES,EC50 [nM]
1,CC(C)N(Cc1ccccc1OCCCCCC(=O)O)C(=O)c1ccc(-c2ccccc2)cc1 [compound 1],42
2,O=C(O)CCCCCOc1ccccc1CN(C(=O)c1ccc(-c2ccccc2)cc1)C1CC1 [compound 8],115
3,O=C(O)CCCCCOc1ccccc1CN(C(=O)c1ccc(-c2cccs2)cc1)C1CC1 [compound 14],1800
4,CCC(C)N(Cc1ccccc1OCCCCCC(=O)O)C(=O)c1ccc(Br)cc1 (centres unmarked) [compound 32],611
5,CCC(C)N(Cc1ccccc1OCCCCCC(=O)O)C(=O)c1ccc(-c2ccccc2)cc1 (centres unmarked) [compound 33],954
6,CCC(C)N(Cc1ccccc1OCCCCCC(=O)O)C(=O)c1ccc(-c2cccnc2)cc1 (centres unmarked) [compound 34],5140
7,CCC(C)N(Cc1ccccc1OCCCCCC(=O)O)C(=O)c1ccc(-c2ccncc2)cc1 (centres unmarked) [compound 35],6400
8,CCC(C)N(Cc1ccccc1OCCCCCC(=O)O)C(=O)c1ccc(-c2cn[nH]c2)cc1 (centres unmarked) [compound 36],15400
9,CCC(C)N(Cc1ccccc1OCCCCCC(=O)O)C(=O)c1ccc(-c2ccco2)cc1 (centres unmarked) [compound 37],41
10,CCC(C)N(Cc1ccccc1OCCCCCC(=O)O)C(=O)c1ccc(-c2ccoc2)cc1 (centres unmarked) [compound 38],290
11,CCC(C)N(Cc1ccccc1OCCCCCC(=O)O)C(=O)c1ccc(-c2cccs2)cc1 (centres unmarked) [compound 39],2100
12,CCC(C)N(Cc1ccccc1OCCCCCC(=O)O)C(=O)c1ccc(-c2ccsc2)cc1 (centres unmarked) [compound 40],179
13,CC(C)N(Cc1ccccc1OCCCCCC(=O)O)C(=O)c1ccc(-c2ccccc2)cc1 [compound 57],60
14,CC(C)N(Cc1ccccc1OCCCCCC(=O)O)C(=O)c1ccc(-c2cccnc2)cc1 [compound 58],1240
15,O=C(O)CCCCCOc1ccccc1CN(C(=O)c1ccc(-c2ccccc2)cc1)C1CCCC1 [compound 65],405
16,Cc1ccccc1-c1ccc(C(=O)N(Cc2ccccc2OCCCCCC(=O)O)C2CC2)cc1 [compound 75],1190

row,SMILES,EC50 [nM]
1,Cc1cccc(-c2ccc(C(=O)N(Cc3ccccc3OCCCCCC(=O)O)C3CC3)cc2)c1 [compound 76],318
2,Cc1ccc(-c2ccc(C(=O)N(Cc3ccccc3OCCCCCC(=O)O)C3CC3)cc2)cc1 [compound 77],372
3,COc1ccccc1-c1ccc(C(=O)N(Cc2ccccc2OCCCCCC(=O)O)C2CC2)cc1 [compound 78],1870
4,COc1cccc(-c2ccc(C(=O)N(Cc3ccccc3OCCCCCC(=O)O)C3CC3)cc2)c1 [compound 79],301
5,COc1ccc(-c2ccc(C(=O)N(Cc3ccccc3OCCCCCC(=O)O)C3CC3)cc2)cc1 [compound 80],439
6,O=C(O)CCCCCOc1ccccc1CN(C(=O)c1ccc(-c2ccccc2F)cc1)C1CC1 [compound 81],597
7,O=C(O)CCCCCOc1ccccc1CN(C(=O)c1ccc(-c2cccc(F)c2)cc1)C1CC1 [compound 82],150
8,O=C(O)CCCCCOc1ccccc1CN(C(=O)c1ccc(-c2ccc(F)cc2)cc1)C1CC1 [compound 83],364
9,CCc1ccccc1-c1ccc(C(=O)N(Cc2ccccc2OCCCCCC(=O)O)C2CC2)cc1 [compound 84],2500
10,Cc1cccc(-c2ccc(C(=O)N(Cc3ccccc3OCCCCCC(=O)O)C3CC3)cc2)c1C [compound 86],1300
11,Cc1ccc(C)c(-c2ccc(C(=O)N(Cc3ccccc3OCCCCCC(=O)O)C3CC3)cc2)c1 [compound 87],1150
12,Cc1cc(C)cc(-c2ccc(C(=O)N(Cc3ccccc3OCCCCCC(=O)O)C3CC3)cc2)c1 [compound 89],1760
13,O=C(O)CCCCCOc1ccccc1CN(C(=O)c1ccc(-c2ccccc2C(F)(F)F)cc1)C1CC1 [compound 90],1300
14,O=C(O)CCCCCOc1ccccc1CN(C(=O)c1ccc(-c2cccc(C(F)(F)F)c2)cc1)C1CC1 [compound 91],1150
15,O=C(O)CCCCCOc1ccccc1CN(C(=O)c1ccc(-c2ccc(C(F)(F)F)cc2)cc1)C1CC1 [compound 92],1760
16,CCCc1ccc(-c2ccc(C(=O)N(Cc3ccccc3OCCCCCC(=O)O)C3CC3)cc2)cc1 [compound 93],1340

# Same assay, conditions: PPARd, EC50 (nM) (from Salk), Table 15
row,SMILES,EC50 [nM]
1,CCC(C)N(Cc1ccccc1OCCCCCC(=O)O)C(=O)c1ccc(-c2ccco2)cc1 (centres unmarked) [compound 37],41
2,CC(C)N(Cc1ccccc1OCCCCCC(=O)O)C(=O)c1ccc(-c2ccccc2)cc1 [compound 57],42

# Same assay, conditions: Table 1; CV-1 cells, GAL4-PPARδ LBD luciferase reporter, compound 24 h; read-out: EC50
row,SMILES,pEC50
1,O=C(O)CCCCCOc1ccccc1CN(C(=O)c1ccc(-c2cccnc2)cc1)C1CC1 [compound 9],5.71
2,O=C(O)CCCCCOc1ccccc1CN(C(=O)c1ccc(-c2cn[nH]c2)cc1)C1CC1 [compound 11],5.67
3,O=C(O)CCCCCOc1ccccc1CN(C(=O)c1ccc(-c2ccoc2)cc1)C1CC1 [compound 13],6.67
4,O=C(O)CCCCCOc1ccccc1CN(C(=O)c1ccc(-c2ccsc2)cc1)C1CC1 [compound 15],7.23
5,CC(C)N(Cc1ccccc1OCCCCCC(=O)O)C(=O)c1ccc(-c2ccncc2)cc1 [compound 59],5.54
6,CC(C)N(Cc1ccccc1OCCCCCC(=O)O)C(=O)c1ccc(-c2cn[nH]c2)cc1 [compound 60],6.15
7,CC(C)N(Cc1ccccc1OCCCCCC(=O)O)C(=O)c1ccc(-c2ccco2)cc1 [compound 61],8.05
8,O=C(O)CCCCCOc1ccccc1CN(C(=O)c1ccc(-c2cccnc2)cc1)C1CCCC1 [compound 66],6.10
9,O=C(O)CCCCCOc1ccccc1CN(C(=O)c1ccc(-c2ccncc2)cc1)C1CCCC1 [compound 67],5.83
10,O=C(O)CCCCCOc1ccccc1CN(C(=O)c1ccc(-c2cn[nH]c2)cc1)C1CCCC1 [compound 68],6.22
11,O=C(O)CCCCCOc1ccccc1CN(C(=O)c1ccc(-c2ccco2)cc1)C1CCCC1 [compound 69],7.29
12,O=C(O)CCCCCOc1ccccc1CN(C(=O)c1ccc(-c2ccoc2)cc1)C1CCCC1 [compound 70],6.90
13,O=C(O)CCCCCOc1ccccc1CN(C(=O)c1ccc(-c2cccs2)cc1)C1CCCC1 [compound 71],6.12
14,O=C(O)CCCCCOc1ccccc1CN(C(=O)c1ccc(-c2ccsc2)cc1)C1CCCC1 [compound 72],7.53

# Same assay, conditions: Table 15; read-out: PPARd, EC50 (nM) (from Salk)
row,SMILES,EC50 [nM]
1,CC(C)N(Cc1ccccc1OCCCCCC(=O)O)C(=O)c1ccc(-c2ccco2)cc1 [compound 61],9
